From patent publication US20170275302A1, “INHIBITORS OF THE RENAL OUTER MEDULLARY POTASSIUM CHANNEL” (Merck Sharp & Dohme Corp., priority 2014, published 2017)

Target: T1, hROMK (hKir1.1) (Homo sapiens, UniProt P48048)
T1 construct: expressed in transfected cells
T1 sequence (P48048 1-391): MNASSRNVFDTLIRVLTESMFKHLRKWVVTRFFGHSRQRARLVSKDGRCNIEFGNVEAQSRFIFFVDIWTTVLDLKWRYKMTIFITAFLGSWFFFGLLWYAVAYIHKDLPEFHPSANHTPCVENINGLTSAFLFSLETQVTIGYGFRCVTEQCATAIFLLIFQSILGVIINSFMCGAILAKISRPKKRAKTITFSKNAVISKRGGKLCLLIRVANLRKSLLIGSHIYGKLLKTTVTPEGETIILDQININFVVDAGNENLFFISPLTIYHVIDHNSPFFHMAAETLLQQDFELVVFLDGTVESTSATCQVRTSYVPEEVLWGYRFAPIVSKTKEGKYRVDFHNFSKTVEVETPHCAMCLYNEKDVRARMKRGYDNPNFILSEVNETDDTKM
Test: Thallium Flux Assay (ROMK channel functional thallium flux assay, FLIPR-Tetra)
Format: cell-based
Details: HEK293 cells stably expressing hROMK (hKir1.1); FluxOR thallium flux, 30 min compound incubation; concentration inhibiting 50% of ROMK thallium flux signal
Protocol: The following Thallium Flux Assay was performed on each of the final product compounds in the Examples.
HEK293 cells stably expressing hROMK (hKir1.1) were grown at 37° C. in a 10% CO2 humidified incubator in complete growth media: Dulbecco's Modified Eagle Medium supplemented with non-essential amino acids, Penicillin/Streptomycin/Glutamine, G418 and FBS. At >80% confluency, the media was aspirated from the flask and rinsed with 10 mL calcium/magnesium-free phosphate buffered saline (PBS). 5 mL of 1× trypsin (prepared in Ca/Mg Free PBS) was added to T-225 flask and the flask was returned to 37° C./CO2 incubator for 2-3 minutes. To dislodge the cells, the side of the flask was gently banged with one's hand. The cells were completely titrated and then the cells were transferred to 25 mL complete media, centrifuged at 1,500 rpm for 6 min followed by resuspension in complete growth media, and the cell concentration was determined. For typical re-seeding, 4E6 cells/T-225 flask will attain >80% confluency in 4 days. Under ideal growth conditions and appropriate tissue culture practices, this cell line is stable for 40-45 passages.
Compound Buffer (per microplate): 20 mL Probenecid/Assay Buffer; 0.3 mM ouabain (10 mM ouabain in water can be stored in amber bottle/aluminum foil at room temperature); Test compound
Stimulant Buffer (prepared at 5× final concentration in 1× FluxOR™Chloride-Free Buffer): 7.5 mM thallium sulfate and 0.75 mM potassium sulfate (to give a final assay concentration of 3 mM Thallium/0.3 mM potassium). Store at 4° C. when not in use. If kept sterile, this solution is good for months.
The ROMK channel functional thallium flux assay was performed in 384 wells, using the FLIPR-Tetra instrument. HEK-hKir1.1 cells were seeded in Poly-D-Lysine microplates and kept in a 37° C.-10% CO2 incubator overnight. On the day of the experiment, the growth media was replaced with the FluxOR™ reagent loading buffer and incubated, protected from light, at ambient temperature (23-25° C.) for 90 min. The loading buffer was replaced with assay buffer±test compound followed by 30 min incubation at ambient temperature, where the thallium/potassium stimulant was added to the microplate.
• 1. Seed HEK-hKir1.1 cells (50 μl at 20,000 cells/well) in 384-well PDL coated Microplates • 2. Allow cells to adhere overnight in humidified 37° C./10% CO2 incubator • 3. Completely remove cell growth media from microplate and replace with 25 μl loading buffer • 4. Incubate Microplate at room temperature, protected form light, for 90 min • 5. Remove loading buffer and replace with 25 μl 1× Assay Buffer±test compound. • 6. Incubate microplate at room temperature, protected from light, for 30 min • 7. At FLIPR-Tetra 384: Add stimulant (thallium/potassium) solution to microplate and monitor fluorescence. Excitation=400 nm, Emission=460 & 580 nm. Collect data for ˜10 min.
The fluorescence intensity of wells containing 3 μM of a standard control ROMK inhibitor of the present invention was used to define the ROMK-sensitive component of thallium flux. Fluorescence in the presence of test compounds was normalized to control values to provide % fluorescence change. IC50 values represent the concentration of compound that inhibited 50% of the ROMK thallium flux signal.

SMILES | IC50 [µM]
Cc1c([C@@H](O)CN2CCC3(CC2)CCN(c2cnc4snnc4c2)C3=O)ccc2c1COC2=O [Example 30] | 0.0832
COc1cc(C(O)CN2CCC3(CC2)CC(=O)N(c2ccc4nncn4n2)C3)ccc1C#N (centres unmarked) [Example 58] | 0.413
Cc1cc(C#N)cnc1C(O)CN1CCC2(CC1)CCN(c1ccc3nncn3n1)C2 (centres unmarked) [Example 48] | 0.0881
Cc1c([C@@H](O)CN2CCC3(CC2)CC(=O)N(c2cnn4ncccc24)C3)ccc2c1COC2=O [Example 41] | 0.336
Cc1c([C@@H](O)CN2CCC3(CCCN(c4nccn5cnnc45)C3)C2)ccc2c1COC2=O (some centres unmarked) [Example 18] | 0.339
Cc1nc(C(O)CN2CCC3(CCN(c4ccc5nncn5n4)CC3)C2)ccc1C#N (centres unmarked) [Example 67, 6-(2-(8-([1,2,4]triazolo[4,3-b]pyridazin-6-yl)-2,8-diazaspiro[4.5]decan-2-yl)-1-hydroxyethyl)-2-methylnicotinonitrile] | 0.0642
COc1cc([C@@H](O)CN2CCC3(CC2)CCN(c2ccc4nncn4n2)C3)ncc1C#N [Example 45, 6-(2-(2-([1,2,4]triazolo[4,3-b]pyridazin-6-yl)-2,8-diazaspiro[4.5]decan-8-yl)-1-hydroxyethyl)-4-methoxynicotinonitrile] | 0.0459
COc1cc([C@H](O)CN2CCC3(CCN(c4ccc5nncn5n4)CC3)C2)ncc1C#N [Example 64] | 0.0918
Cc1cc(C#N)cnc1C(O)CN1CCC2(CCN(c3ccc4nncn4n3)CC2)C1 (centres unmarked) [Example 65, 6-(2-(8-([1,2,4]triazolo[4,3-b]pyridazin-6-yl)-2,8-diazaspiro[4.5]decan-2-yl)-1-hydroxyethyl)-5-methylnicotinonitrile] | 0.0347
COc1cc([C@H](O)CN2CCC3(CC2)CCN(c2ccc4nncn4n2)C3)ncc1C#N [Example 44] | 0.124
COc1cc([C@H](O)CN2CCC3(CC2)CCN(c2ccc4c(c2C)COC4=O)C3)ncc1C#N [Example 77, (R)-6-(1-hydroxy-2-(2-(4-methyl-1-oxo-1,3-dihydroisobenzofuran-5-yl)-2,8-diazaspiro[4.5]decan-8-yl)ethyl)-4-methoxynicotinonitrile] | 0.0664
N#Cc1ccc(C(O)CN2CCC3(CCN(c4ccc5nncn5n4)CC3)C2)nc1 (centres unmarked) [Example 63] | 0.154
Cc1nc(C(O)CN2CCC3(CC2)CCN(c2ccc4nncn4n2)C3)ccc1C#N (centres unmarked) [Example 46, 6-(2-(2-([1,2,4]triazolo[4,3-b]pyridazin-6-yl)-2,8-diazaspiro[4.5]decan-8-yl)-1-hydroxyethyl)-2-methylnicotinonitrile] | 0.077
COc1cc([C@@H](F)CN2CCC3(CC2)CCN(c2ccc4nncn4n2)C3)ncc1C#N [Example 21] | 0.236
COc1cc([C@@H](O)CN2CCC3(CC2)CCN(c2ccc4nncn4n2)C3=O)ncc1C#N [Example 75] | 0.608
Cc1c([C@@H](O)CN2CCC3(CC2)CCN(c2snc4ccncc24)C3=O)ccc2c1COC2=O [Example 85] | 0.0185
COc1cc([C@@H](O)CN2CCC3(CC2)CCN(c2ccc4nnnn4n2)C3)ncc1C#N [Example 71, (S)-6-(1-hydroxy-2-(2-(tetrazolo[1,5-b]pyridazin-6-yl)-2,8-diazaspiro[4.5]decan-8-yl)ethyl)-4-methoxynicotinonitrile] | 0.208
Cc1nc(C(O)CN2CCC3(CC2)CCN(c2ccc4nncn4n2)C3)ccc1C#N (centres unmarked) [Example 47] | 0.147
Cc1c([C@@H](O)CN2CCC3(CC2)CC(=O)N(c2ccc4nc(C(F)(F)F)nn4c2)C3)ccc2c1COC2=O [Example 40] | 0.894
Cc1c([C@@H](O)CN2CCC3(CC2)CN(c2ccc4c(c2C)COC4=O)C(=O)O3)ccc2c1COC2=O [Example 81, (R)-8-(2-hydroxy-2-(4-methyl-1-oxo-1,3-dihydroisobenzofuran-5-yl)ethyl)-3-(4-methyl-1-oxo-1,3-dihydroisobenzofuran-5-yl)-1-oxa-3,8-diazaspiro[4.5]decan-2-one] | 0.0914
Cc1c([C@@H](O)CN2CCC3(CC2)CCN(c2snc4cccnc24)C3=O)ccc2c1COC2=O [Example 83] | 0.0339

Next, values leading:

IC50 [µM] | SMILES
0.031 | Cc1c([C@@H](O)CN2CCC3(CCN(c4ccc5nncn5n4)CC3)C2)ccc2c1COC2=O [Example 70, (R)-5-(2-(8-([1,2,4]triazolo[4,3-b]pyridazin-6-yl)-2,8-diazaspiro[4.5]decan-2-yl)-1-hydroxyethyl)-4-methylisobenzofuran-1(3H)-one]
0.301 | Cc1c([C@@H](O)CN2CCC3(CC2)CCN(c2cnc4snnc4c2)C3)ccc2c1COC2=O [Example 29, (R)-5-(2-(2-([1,2,3]thiadiazolo[5,4-b]pyridin-6-yl)-2,8-diazaspiro[4.5]decan-8-yl)-1-hydroxyethyl)-4-methylisobenzofuran-1(3H)-one]
0.0747 | Cc1c([C@@H](O)CN2CCC3(CC2)CCN(c2ccc4nncn4n2)C3)ccc2c1COC2=O [Example 5, (R)-5-(2-(2-([1,2,4]triazolo[4,3-b]pyridazin-6-yl)-2,8-diazaspiro[4.5]decan-8-yl)-1-hydroxyethyl)-4-methylisobenzofuran-1 (3H)-one]
0.699 | Cc1c([C@@H](O)CN2CCC3(CC2)CCN(c2nccn4ccnc24)C3)ccc2c1COC2=O [Example 91]
0.779 | Cc1c([C@@H](O)CN2CCC3(CC2)CCN(c2nc4cc(F)ccc4o2)C3)ccc2c1COC2=O [Example 4]
0.304 | Cc1c([C@@H](O)CN2CCC3(CC2)CCN(c2nc4c(S(N)(=O)=O)cccc4s2)C3)ccc2c1COC2=O [Example 6]
0.0978 | CCc1nnc2ccc(N3CCC4(CCN(C[C@H](O)c5ccc6c(c5C)COC6=O)CC4)C3)nn12 [Example 16]
0.317 | Cc1c([C@@H](O)CN2CCC3(CC2)CCN(c2snc4ncccc24)C3)ccc2c1COC2=O [Example 27, (R)-5-(1-hydroxy-2-(2-(isothiazolo[3,4-b]pyridin-3-yl)-2,8-diazaspiro[4.5]decan-8-yl)ethyl)-4-methylisobenzofuran-1(3H)-one]
0.287 | Cc1c([C@@H](O)CN2CCC3(CC2)CCN(c2ccc4nnc(C(F)(F)F)n4n2)C3)ccc2c1COC2=O [Example 15]
0.132 | Cc1c([C@@H](O)CN2CCC3(CC2)CCN(c2nc4cc(C#N)ccc4[nH]2)C3)ccc2c1COC2=O [Example 2]
0.0427 | Cc1c([C@@H](O)CN2CCC3(CC2)CC(=O)N(c2ccc4nonc4c2)C3)ccc2c1COC2=O [Example 89, (R)-2-(benzo[c][1,2,5]oxadiazol-5-yl)-8-(2-hydroxy-2-(4-methyl-1-oxo-1,3-dihydroisobenzofuran-5-yl)ethyl)-2,8-diazaspiro[4.5]decan-3-one]
0.0976 | Cc1c([C@@H](O)CN2CCC3(CCCN(c4ccc5nncn5n4)C3)CC2)ccc2c1COC2=O [Example 76]
0.745 | Cc1c([C@@H](O)CN2CCC3(CC2)CCN(c2nccn4nccc24)C3)ccc2c1COC2=O [Example 1, (R)-5-(1-hydroxy-2-(2-(pyrazolo[1,5-α]pyrazin-4-yl)-2,8-diazaspiro[4.5]decan-8-yl)ethyl)-4-methylisobenzofuran-1(3H)-one]
0.199 | COC1OC(=O)c2ccc(N3CCC4(CCN(C[C@H](O)c5ccc6c(c5C)COC6=O)CC4)C3)cc21 (stereo partly drawn) [Example 26, 5-((1R)-1-hydroxy-2-(2-(3-methoxy-1-oxo-1,3-dihydroisobenzofuran-5-yl)-2,8-diazaspiro[4.5]decan-8-yl)ethyl)-4-methylisobenzofuran-1(3H)-one]
